# Measured values as given in BindingDB's records for doi:10.1016/j.bmc.2005.05.065 (National Taiwan University, 2005).
# Target: Replicase polyprotein 1ab (Severe acute respiratory syndrome coronavirus, UniProt P0C6X7)
# Assay: SARS-CoV 3CL Protease Inhibition Assay
# Settings: pH 7; 25 °C
# Experimental: The effects of compound on enzyme activity were measured by using a fluorogenic peptide cleavage assay. Enhanced fluorescence caused by cleavage of the substrate peptide was monitored at 538 nm with excitation at 355 nm. The Ki measurements were performed at two fixed inhibitor concentrations and various substrate concentrations.
structure (smiles),measurement,value
"CCOC(=O)/C=C/[C@H](C[C@@H]1CCNC1=O)NC(=O)[C@@H](CC(=O)[C@@H](NC(=O)c1cc(C)on1)C(C)C)Cc1ccc(F)cc1 [ethyl (2E,4S)-4-[((2R,5S)-2-(4-fluorobenzyl)-6-methyl-5-{[(5-methylisoxazol-3-yl)carbonyl]amino}-4-oxoheptanoyl)amino]-5-[(3S)-2-oxopyrrolidin-3-yl]pent-2-enoate]",IC50,> 100 µM
